Measured values as given in the supplement of paper PMC10307832.

What was measured:
Assay in all cases: relative viability (nuclei count vs DMSO), 5 days (fraction); higher = more cells survive
Zosuquidar + Luminespib = compound: O[C@@H](COc1cccc2ncccc12)CN1CCN([C@@H]2c3ccccc3[C@@H]3[C@H](c4ccccc42)C3(F)F)CC1 [Zosuquidar] + CCNC(=O)c1noc(-c2cc(C(C)C)c(O)cc2O)c1-c1ccc(CN2CCOCC2)cc1 [Luminespib] (partner 0.01 µM)
Summary of the method: (§1)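 For relative viability, nuclei counts in treated wells were divided by those in vehicle wells. Lung cancer cell lines had been pin-tool dosed in 1536-well plates the day after seeding and cultured for 5 days, then fixed and stained in one step (final 0.05% Triton X-100, 1% formaldehyde, 1 ug/ml Hoechst) and imaged at 4×. Doses were one drug alone or a fixed anchor-drug dose plus five library-drug doses (not always all listed) in √10 steps, and values are duplicate-plate medians.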

[1] = compound: COc1cc2nccc(Oc3ccc(NC(=O)C4(C(=O)Nc5ccc(F)cc5)CC4)cc3)c2cc1OC [Cabozantinib] + CS(=O)(=O)N1CCN(Cc2cc3nc(-c4cccc5[nH]ncc45)nc(N4CCOCC4)c3s2)CC1 [Pictilisib] (partner 1 µM)
Summary of the method: as §1

Zosuquidar + Lapatinib = compound: O[C@@H](COc1cccc2ncccc12)CN1CCN([C@@H]2c3ccccc3[C@@H]3[C@H](c4ccccc42)C3(F)F)CC1 [Zosuquidar] + CS(=O)(=O)CCNCc1ccc(-c2ccc3ncnc(Nc4ccc(OCc5cccc(F)c5)c(Cl)c4)c3c2)o1 [Lapatinib] (partner 2 µM)
Summary of the method: as §1

Kobe2602 + Dasatinib = compound: C1=CC(=CC=C1NC(=S)NNC2=C(C=C(C=C2[N+](=O)[O-])C(F)(F)F)[N+](=O)[O-])F [Kobe2602] + Cc1nc(Nc2ncc(C(=O)Nc3c(C)cccc3Cl)s2)cc(N2CCN(CCO)CC2)n1 [Dasatinib] (partner 0.075 µM)
Summary of the method: as §1

Cell Line | relative viability (Zosuquidar + Luminespib; first compound 0.01 µM) | relative viability (Zosuquidar + Luminespib; first compound 0.03162 µM) | relative viability (Zosuquidar + Luminespib; first compound 0.1 µM) | relative viability (Zosuquidar + Luminespib; first compound 0.3162 µM) | relative viability (Zosuquidar + Luminespib; first compound 1 µM) | relative viability ([1]; first compound 0.02 µM) | relative viability ([1]; first compound 0.06325 µM) | relative viability ([1]; first compound 0.2 µM) | relative viability ([1]; first compound 0.6325 µM) | relative viability ([1]; first compound 2 µM) | relative viability (Zosuquidar + Lapatinib; first compound 0.01 µM) | relative viability (Zosuquidar + Lapatinib; first compound 0.03162 µM) | relative viability (Zosuquidar + Lapatinib; first compound 0.1 µM) | relative viability (Zosuquidar + Lapatinib; first compound 0.3162 µM) | relative viability (Zosuquidar + Lapatinib; first compound 1 µM) | relative viability (Kobe2602 + Dasatinib; first compound 0.2 µM) | relative viability (Kobe2602 + Dasatinib; first compound 0.6325 µM) | relative viability (Kobe2602 + Dasatinib; first compound 2 µM) | relative viability (Kobe2602 + Dasatinib; first compound 6.325 µM) | relative viability (Kobe2602 + Dasatinib; first compound 20 µM)
NCI-H838 | 0.329 | 0.328 | 0.28 | 0.304 | 0.284 | 0.499 | 0.574 | 0.529 | 0.394 | 0.417 | 1.04 | 0.765 | 0.858 | 1.18 | 1.06 | 0.264 | 0.309 | 0.249 | 0.291 | 0.289
LK-2 | 0.185 | 0.184 | 0.169 | 0.172 | 0.172 |  | 0.632 | 0.565 | 0.625 | 0.588 | 0.985 | 0.892 | 0.923 | 1.18 | 0.946 | 0.377 | 0.35 | 0.319 | 0.274 | 0.342
BEN | 0.374 | 0.218 | 0.381 | 0.274 | 0.329 | 0.58 | 0.632 | 0.576 | 0.601 | 0.458 | 0.79 | 0.718 | 0.594 | 0.825 | 0.745 | 0.322 | 0.353 | 0.395 | 0.303 | 0.324
NCI-H23 | 0.206 | 0.223 | 0.223 | 0.222 | 0.266 |  | 0.476 | 0.402 | 0.358 | 0.427 | 1.15 | 1.16 | 1.38 | 1.23 | 1.15 | 0.697 | 0.879 | 0.776 | 0.817 | 1.02
NCI-H1944 | 0.76 | 0.655 | 0.722 | 0.785 | 0.651 |  | 0.367 | 0.369 | 0.34 | 0.342 | 0.822 | 0.797 | 0.585 | 0.925 | 0.794 | 0.255 | 0.223 | 0.233 | 0.213 | 0.245
NCI-H1792 | 0.334 | 0.234 | 0.38 | 0.673 | 0.293 | 0.334 | 0.318 | 0.301 | 0.293 | 0.268 | 0.9 | 0.893 | 0.837 | 0.839 | 0.795 | 0.691 | 0.949 | 0.894 | 0.85 | 0.787
NCI-H2085 | 0.425 | 0.526 | 0.531 | 0.44 | 0.471 | 0.468 | 0.456 | 0.443 | 0.465 | 0.344 | 0.796 | 0.754 | 0.475 | 0.826 | 0.778 | 0.262 | 0.261 | 0.24 | 0.238 | 0.23
LC-2-ad | 1.05 | 0.85 | 0.981 | 0.999 | 0.987 | 0.31 | 0.402 | 0.279 | 0.319 | 0.177 | 0.994 | 1.05 | 0.993 | 0.989 | 0.958 | 0.562 | 0.642 | 0.454 | 0.636 | 0.686
201T | 1.02 | 1 | 0.961 | 1.12 | 1.04 | 0.688 | 0.715 | 0.656 | 0.709 | 0.71 | 0.996 | 1.05 | 0.881 | 1.02 | 0.997 | 0.618 | 0.59 | 0.568 | 0.497 | 0.484
NCI-H2023 | 0.796 | 0.619 | 0.904 | 0.776 | 0.759 | 0.189 | 0.228 | 0.22 | 0.206 | 0.2 | 0.848 | 0.856 | 0.712 | 1.45 | 0.955 | 0.532 | 0.583 | 0.547 | 0.484 | 0.394
NCI-H1793 | 0.179 | 0.263 |  | 0.207 | 0.207 | 0.416 | 0.325 | 0.296 | 0.27 | 0.293 | 0.916 | 0.625 |  | 0.835 | 1.11 | 0.367 | 0.4 | 0.361 | 0.397 | 0.398
NCI-H2347 | 0.539 | 0.51 | 0.256 | 0.34 | 0.602 | 0.893 | 0.726 | 0.897 | 0.497 | 0.592 | 0.888 | 0.931 | 0.908 | 1.06 | 0.925 | 0.377 | 0.282 | 0.315 | 0.364 | 0.414
LXF-289 | 0.665 | 0.762 | 0.675 | 0.711 | 0.581 | 0.74 | 0.727 | 0.783 | 0.69 | 0.693 | 0.876 | 0.908 | 0.872 | 0.913 | 0.923 | 0.253 | 0.23 | 0.248 | 0.208 | 0.245
NCI-H1563 | 0.471 | 0.536 | 0.523 | 0.538 | 0.532 | 0.572 | 0.607 | 0.637 | 0.621 | 0.66 | 0.99 | 0.81 | 0.813 | 1.04 | 0.855 | 0.473 | 0.473 | 0.466 | 0.467 | 0.527
EKVX | 0.926 | 0.8 | 0.749 | 0.812 | 0.832 | 0.483 | 0.448 | 0.344 | 0.418 | 0.367 | 0.227 | 0.254 | 0.106 | 0.34 | 0.214 | 0.6 | 0.578 | 0.513 | 0.474 | 0.454
ABC-1 | 0.682 | 0.742 | 0.748 | 0.603 | 0.474 | 0.604 | 0.707 | 0.681 | 0.701 | 0.819 | 1.17 | 1.14 | 1.24 | 1.19 | 1.05 | 0.615 | 0.568 |  | 0.769 | 0.47
